# Experimental data: patent publication US5227372A, “Method for retaining ophthalmological agents in ocular tissues” (Children's Medical Center Corporation, priority 1990, dated 1993)
# What was measured:
# [1] = polyacrylamide and copolymer of acrylamide, N-vinylpyrrolidone and ethyl acrylate matrix; cited from earlier work
# [2] = polymeric film; cited from earlier work
# [3] = Fluorescence of neovascularized corneal vessels after injection into the carotid artery (Example 4); format: in vivo, rabbit; conditions: injected into the carotid artery; fluorescein alone
# Method: The water soluble complex described in Example 3 was injected into the carotid artery of rabbits who had neovascularization in the cornea induced by a pellet of endotoxin implanted one week earlier. After a single injection, the new vessels in the cornea were still flourescing green 3 hours later.
# Similarly, when the cyclodextrin-fluorscein complex, dissolved in an aqueous solution of methylcellulose (0.45%), was applied to the rabbit cornea, Descemet's membrane in the cornea also glowed green more than 3 hours later when histological sections of the corneas were examined.
# [4] = Fluorescence of Descemet's membrane in histological sections of corneas after application to the cornea (Example 4); format: in vivo, rabbit; conditions: fluorescein alone
# [5] = intravenous injection; fluorescein alone; cited from earlier work
# [6] = test system: fibroblast growth factor (FGF); conditions: sulfated cyclodextrin column; Shing et al.; cited from earlier work
# [7] = rabbit, in vivo
# [8] = rabbit, in vivo; remark: listed apart in the source
# Method: A polyethylene ring was glued to the cornea in anesthesized rabbits. Saline containing 1 mg/ml of [S^35 ]-β-cyclodextrin tetradecasulfate was added to each well for up to 120 minutes, after which the wells were removed and the corneas vigorously rinsed with saline. The anterior chamber fluid (ACF) was then aspirated. The corneas were then exised and digested in collegenase and the corneal supernatunt counted.
molecule,measurement,setting,value
CC[C@@H]1C(=O)OC[C@@H]1Cc1cncn1C [pilocarpine],increase in ocular bioavailability of pilocarpine,[1],three
same,increase in ocular bioavailability of pilocarpine over aqueous solution,[2],two
O=C1OC2(c3ccc(O)cc3Oc3cc(O)ccc32)c2ccccc21 [fluorescein],disappearance from the corneal vessels,[3],disappeared from the corneal vessels within a few minutes
same,presence in Descemet's membrane,[4],not found in Descemet's membrane
same,time to clearance from the blood vessels,[5],less than one
β-cyclodextrin tetradecasulfate,affinity for FGF,[6],high affinity
same,concentration in the aqueous humor relative to cornea,[7],"parallels that in the cornea, but at lower levels"
same,time course in the cornea,[7],rapid rise in the cornea of labelled β-cyclodextrin tetradecasulfate and then a gradual fall-off
same,time after removal of wells up to which label is detected in the ACF and in the corneas,[8],up to three
same,time course of penetration in both the corneas and ACF,[8],increased bearly with time
